According to patent publication US7378495B2, “PTH-rP related peptide cancer therapeutics” (Pevion Biotech, Ltd., priority 2002, dated 2008):
Marks after values point to notes of the source that are not given here. Bridges are numbered along the chain shown (N, C = ends). Where no end group is shown, it is not given here.

Tests used:
HLA-A(*)02.01 molecules = HLA-A(*)02.01 molecules (Homo sapiens, UniProt P04439, D140Y/D185E/D98H/E176V/E277Q/G131W/G231S/I119V/I121R/I166T/I218V/L300P/L318F/N151K/N90K/P208A/P217A/Q86G/Q94H/R138H/R169H/T345S); assay: T2-A2 HLA up-regulation test (HLA-A2.1 class I up-regulation, peptide binding); conditions: positive cut-off 287.116
Protocol: T2-A2, HLA up-regulation test: binding of the PTR-2 and PTR-4 peptides to HLA-A(*)02.01 molecules was evaluated by means of flow cytometry using T2 cells and the method described by Nijman et al. In this assay, increased stability (the accumulation of HLA-A(*)02.01 molecules on the surface of T2 cells as a consequence of peptide binding) is measured in terms of the increased binding of the antibody directed against HLA-A(*)02.01. Briefly, 10^6 T2 cells in serum-free IMDM were incubated overnight with escalating concentrations (0, 5, 25 and 50 μg/ml) of the PTR peptides in 24-well culture plates at 37° C. in an atmosphere containing 5% CO2. The cells were then washed two times with DPBS, and subsequently incubated for one hour with an anti-HLA-A(*)02.01 (A2.69) specific monoclonal antibody (A2.69, #189HA-1; One Lambda, Inc., Canoga Park, Calif.), using 10 μl of the recommended dilution per 10^6 cells. UPC-10 (Cappel/Organon Teknika Corp) was used as an isotype control. The cells were again washed two times with DPBS, incubated with 100 μl of a 1:100 dilution of fluorescein isothiocyanate (FITC)-labeled anti-mouse IgG (Becton Dickinson Corp.), and analyzed by means of FACScan and single-color analysis. The cells were kept at 4° C. during all of the manipulations unless otherwise stated.
Peptide selection and HLA-A(*)02.01 binding: In order to test the immunogenicity of PTH-rP protein and test possible tolerance of human T cell repertoire specific for it, the PTH-rP molecules were screened with the “Parker” algorithm (BIMAS) in order to predict peptides having high theoretical HLA-A(*)02.01 binding motifs. The functional binding of the two peptides to HLA-A(*)02.01 molecules was tested in vitro by means of the T2 test. PTH-rP peptides with similar or overlapping amino acid homology to the analogue sequences of parathyroid hormone (PTH) were cut out of the screening. The peptide sequences included in the first 36 amino acids (pro-peptide) were ignored although theoretically predicted with higher affinity for the HLA-A(*)02.01 molecule. […]

[1] = 0.1 mg sc. in the dorsal neck, after 6 hours, three mice

| T2 binding (HLA-A(*)02.01 molecules; peptide 5 μg/ml) | T2 binding (HLA-A(*)02.01 molecules; peptide 25 μg/ml) | T2 binding (HLA-A(*)02.01 molecules; peptide 50 μg/ml) | Substance | Serum Ca (hypocalcemia induced by positive control) [1] |
| --- | --- | --- | --- | --- |
| 240^d relative fluorescence values | 352^e relative fluorescence values | 502.9^f relative fluorescence values | YLSGANLNL [CAP-1] | – |
| – | – | – | Human synthetic thyreocalcitonin: Sigma-Aldrich # T3535, positive control capable to induce hypocalcemia (CGNLSTCMLGTYTQDFNKFHTFPQTAIGVGAP-NH2; disulfide 1-7; ends not checked; UniProt P01258 85-116, looked up) | 0.64 ± 0.645 mmol/L |
